Measurements taken from US20090232899A1, “Mucoadhesive nanocomposite delivery system” (priority 2004, published 2009).

Tests used:
[1] = low pH, simulated gastric fluid; cited from earlier work

Description for NIH3T3 fibroblast cells: The NIH3T3 fibroblast cells were used for cytotoxicity testing by methyl thiazol-2-YL-2,5-diphenyl tetrazolium bromide (MTT) staining. After seven days, the cell-containing samples were rinsed with serum-free media to remove the unattached cells and were transferred to a new plate. Then, 250 μl MTT solution was added to each sample and incubated for 4 hours to induce MTT formazan formation. Purple formazan was extracted with dimethyl sulfoxide (DMSO), and was used for optical density (OD) measurement with a Thermomax ELISA reader at a wavelength of 540 nm with DMSO as a blank.

Compound | Viability of fibroblasts, ratio (%) of absorbance of sample group to group without treatment (NT) (NIH3T3 fibroblast cells) [%] | Stability under the testing conditions, compared with amoxicillin [1]
Chitosan | 90 ± 9 | –
Cc1ncc([N+](=O)[O-])n1CCO [Metronidazole] | – | greater stability
